pIC50: −log10 of the molar value.
species: Mus musculus; assay: Hydroxyl radical scavenging activity by chemiluminescence technique in mouse thymus cells; type: functional; conditions: not given

SMILES | IC50 [uM l-1]
O=C(O)c1ccccc1 [BENZOIC ACID] | 16600
NC(N)=S [THIOUREA] | 1200

The remaining lines, values ahead:

IC50 [uM l-1] | SMILES
147.2 | O=C([O-])CCNC12c3c4c5c6c7c8c(c9c%10c1c1c3c3c%11c4c4c5c5c7c7c%12c8c8c9c9c%10c%10c1c1c3c3c%11c%11c4c4c5c7c5c7c%12c8c8c9c9c%10c1c1c3c3c%11c4c5c4c7c8c9c1c34)C62.[Na+] (stereo unspecified)
13800 | OC[C@@H](O)[C@@H](O)[C@H](O)[C@H](O)CO [MANNITOL]

same assay, conditions: Mus musculus; read-out: IC50

pIC50 | SMILES
4.12 | CN(CCC(=O)O)C12C3=c4c5c6c7c8c9c%10c%11c%12c%13c%14c%15c%16c%17c%18c%19c%20c(c4c4c5c8c(c%139)c(c%14%18)c%194)C4(NCCC(=O)O)C5=c8c9c(c-%16c%13c%14c%16c(c-%11c%11c%18c(c%19c1c(c8c(c9%14)c%19c%18%16)C34)=C(C62)C7(NCCC(=O)O)C%11%10)C%13C%12%15NCCC(=O)O)C%17C5%20NCCC(=O)O (stereo unspecified)
4.02 | CN(CCC(=O)O)C12C3=C4c5c6c7c8c9c%10c%11c%12c%13c%14c%15c%16c%17c%18c(c5c8c(c%15%18)c%139)C4(NCCC(=O)O)C4C=%17C5(NCCC(=O)O)C(=C8c9c1c1c%13c%15c%17c%18c%19c%20c%21c(c8c%19c9%15)C5C=%16C%21(NCCC(=O)O)C%14C%12(NCCC(=O)O)C%20C%18(NCCC(=O)O)C%11C5(NCCC(=O)O)C%17C%13=C(C6(NCCC(=O)O)C31)C7(NCCC(=O)O)C%105)C42 (stereo unspecified)
